Reference: US6989397B1, “Iron chelators and uses thereof” (University of Queensland, priority 1999, dated 2006)
Values joined by “and” are separate entries in the source; they are usually repeats but may differ in a detail not shown here. Identical values can stand only once.

What was measured:
[1] = test system: iron-regulatory proteins (IRPs); assay: iron regulatory protein gel-retardation assay (IRP-RNA binding activity); assay type: cell-based, human; settings: SK-N-MC cells, 20 hr incubation; chelators 25 μM, DFO 100 μM, FAC 100 μg/ml
Experimental: FIG. 5. The effect of the chelators on the RNA-binding activity of the iron-regulatory proteins (IRPs) in the SK-N-MC neuroepithelioma cells. Cells were incubated for 20 h with either medium alone (control), ferric ammonium citrate (FAC: 100 μg/ml), DFO (100 μM), or the other chelators (25 μM).
A gel-retardation assay was used to measure the interaction between the IRPs and IRE using established techniques (Leibold et al., […]. Proc. Natl. Acad. Sci. USA 85 2171–5; Müllner et al., 1989 Cell 58 373–82). Briefly, after incubation with medium alone (control) or medium containing ferric ammonium citrate (100 μg/ml: Aldrich Ltd., Sydney, Australia) or the chelator. […] cells were washed with ice-cold phosphate-buffered saline (PBS) and lysed at 4° C. in 40 μl of ice-cold Munro extraction buffer (10 mM HEPES, pH 7.6, 3 mM MgCl2, 40 mM KCl, 5% glycerol, 1 MM dithiothreitol and 0.5% Nonidet P-40). After lysis, the samples were then centrifuged at 10,000 rpm for 3 mins at 4° C. to remove nuclei and the supernatant stored at −70° C. Frozen cytoplasmic extracts were thawed on ice and then centrifuged at 15,000 rpm for 10 min at 4° C. The protein concentration of the soluble supernatant was determined using the BioRad protein assay (BioRad Ltd., USA). Samples of cytoplasmic extracts were diluted to a protein concentration of 100 μg/ml in Munro buffer without Nonidet P-40 and 1 μg aliquots were analyzed for IRP by incubation with 0.1 ng (approximately 1×10^5 cpm) of ^32P-labelled pGL66 RNA transcript (Leibold et al., 1988). The riboprobe was transcribed in vitro from linearized plasmid templates using SP6 RNA polymerase in the presence of α-^32P UTP (Dupont, NEN). This latter reaction was performed using the Promega Riboprobe In Vitro Transcription Kit (Promega, Madison, Wis., USA). The probe was subsequently purified on a 6% urea/PAGE gel. To form RNA-protein complexes, cytoplasmic extracts containing 1 μg of protein were incubated for 10 mins at room temperature with the ^32P-labelled riboprobe. Unprotected probe was degraded by incubation with 1 U of RNAse T1 for 10 mins at room temperature. Heparin (Sigma) at a final concentration of 5 mg/ml was then added and incubated with the extract for another 10 min at room temperature to exclude non-specific binding. RNA-protein complexes were analyzed in 6% non-denaturing polyacrylamide gels at 4° C. as described by Konarska et al., 1986, Cell 46 845–55. Gels were dried, covered in plastic film and exposed to Kodak XAR films at −70° C. with an intensifying screen.
An important effect of intracellular Fe depletion using DFO is the activation of RNA-binding activity of the iron regulatory proteins (IRP's) (Hentze et al., 1996, Proc. Natl. Acad. Sci. USA 93 8175–82). […] The present inventors examined the effect of a 20 hr incubation with 311, PIH and the PCIH analogues (25 μM) on IRP-RNA binding activity in SK-N-MC cells. In all experiments, DFO (100 μM) was used as a positive control to deplete cells of Fe and increase IRP-RNA binding activity. In contrast, ferric ammonium citrate (FAC: 100 μg/ml) was used to donate Fe to cells and reduce IRP-RNA binding.

[2] = test system: SK-Mel-28 melanoma cells; assay: 59Fe release from prelabelled cells (iron efflux); assay type: cell-based, human; settings: labelled 3 h with 59Fe-transferrin 0.75 μM, reincubated 3 h at 37° C., chelators 50 μM, DFO 100 μM, Mean±SD
Experimental: (§1) The effect of chelators on ^59Fe uptake from ^59Fe-Tf and ^59Fe release from prelabelled cells was studied using standard procedures reported previously (Richardson et al., 1994, J. Lab Clin. Med. 124 660–71). The amount of ^59Fe internalized by the cells was measured by incubation with the general protease pronase (1 mg/ml) for 30 min at 4° C. to remove membrane-bound ^59Fe and Tf (Richardson et al., 1990; Baker et al., 1998, Biochim. Biophys. Acta 1380 21–30).
Table 1. The effect of DFO, 311, PCTH, PCBH, or PCBHH on ^59Fe release from BE-2 neuroblastoma cells, SK-N-MC neuroepithelioma cells, and SK-Mel-28 melanoma cells. Cells were labeled for 3 h at 37° C. with ^59Fe-transferrin (0.75 μM), washed, and then reincubated with the chelators for 3 h at 37° C. […] Results are Mean±SD of three determinations in a typical experiment.

[3] = test system: SK-N-MC neuroepithelioma cells; assay: internalized 59Fe uptake from 59Fe-transferrin; assay type: cell-based, human; settings: for Internalised Iron Uptake (% Control) / 59Fe uptake from 59Fe-Tf, % of the control value (FIG. 2B): SK-N-MC, chelators 50 μM, DFO 100 μM; for Internalised Iron Uptake (% Control): 59Fe-transferrin 0.75 μM, 3 h at 37° C., mean±SD; for 59Fe uptake from 59Fe-Tf, % of the control value (FIG. 2B): 3 hrs at 37° C., FIG. 2B screening experiment
Experimental: The effect of chelators on ^59Fe uptake from ^59Fe-Tf and ^59Fe release from prelabelled cells was studied using standard procedures reported previously (Richardson et al., 1994, J. Lab Clin. Med. 124 660-71). The amount of ^59Fe internalized by the cells was measured by incubation with the general protease pronase (1 mg/ml) for 30 min at 4° C. to remove membrane-bound ^59Fe and Tf (Richardson et al., 1990; Baker et al., 1998, Biochim. Biophys. Acta 1380 21-30). […] To determine the ability of the chelators to inhibit ^59Fe uptake from ^59Fe-Tf (0.75 μM). […] Table 2. The effect of DFO, 311, […], or PCBHH on internalized ^59Fe uptake from ^59Fe-transferrin by BE-2 neuroblastoma cells, SK-N-MC neuroepithelioma cells, and SK-Mel-28 melanoma cells. Cells were incubated with the chelators and ^59Fe-transferrin (0.75 μM) for 3 h at 37° C., washed, and incubated for 30 min at 4° C. with pronase (1 mg/ml) to separate the internalized from the membrane-bound ^59Fe. All chelators were screened at a concentration of 50 μM except for DFO which was examined at 100 μM. Results are mean±SD (three determinations) from a typical experiment.

[4] = test system: BE-2 neuroblastoma cells; assay: internalized 59Fe uptake from 59Fe-transferrin; assay type: cell-based; settings: 59Fe-transferrin 0.75 μM, 3 h at 37° C., chelators 50 μM, DFO 100 μM, mean±SD
Experimental: as §1
Table 2. The effect of DFO, 311, PCTH, PCBH, or PCBHH on internalized ^59Fe uptake from ^59Fe-transferrin by BE-2 neuroblastoma cells, SK-N-MC neuroepithelioma cells, and SK-Mel-28 melanoma cells. Cells were incubated with the chelators and ^59Fe-transferrin (0.75 μM) for 3 h at 37° C., washed, and incubated for 30 min at 4° C. with pronase (1 mg/ml) to separate the internalized from the membrane-bound ^59Fe. All chelators were screened at a concentration of 50 μM except for DFO which was examined at 100 μM. Results are mean±SD (three determinations) from a typical experiment.

SMILES: O=C(NN=Cc1c(O)ccc2ccccc12)c1ccncc1 [Chelator 311, 2-hydroxy-1-naphthylaldehyde isonicotinoyl hydrazone, reference compound]
- IRP-RNA binding activity compared to the control (FIG. 5) [1]: marked increase
- % Cellular Iron Released [2]: 70 ± 1%
- 59Fe uptake from 59Fe-Tf, % of the control, range over all 3 cell lines ([3]; BE-2, SK-N-MC and SK-Mel-28 cell lines together, 3 hr, 50 μM, Table 2): 8–10 % of the control
- Internalised Iron Uptake (% Control) [3]: 10 ± 4 % Control
- Internalised Iron Uptake (% Control) [4]: 8 ± 1 % Control

SMILES: CC(=O)N(O)CCCCCNC(=O)CCC(=O)N(O)CCCCCNC(=O)CCC(=O)N(O)CCCCCN [DFO, desferrioxamine, reference compound]
- IRP-RNA binding activity compared to the control (FIG. 5) [1]: increase
- % Cellular Iron Released [2]: 27 ± 1%
- Internalised Iron Uptake (% Control) [3]: 100 % Control and 100 ± 6 % Control
- 59Fe uptake from 59Fe-Tf, % of the control value (FIG. 2B) [3]: 91 % of the control
- Internalised Iron Uptake (% Control) [4]: 42 % Control and 42 ± 3 % Control

SMILES: O=C(NN=Cc1ccco1)c1ccncc1 [FIH, 2furoylcarboxaldehyde isonicotinoyl hydrazone]
- IRP-RNA binding activity compared to the control (FIG. 5) [1]: decreased
- 59Fe uptake from 59Fe-Tf, % of the control value (FIG. 2B) [3]: no effect

SMILES: O=C(NN=Cc1ccccn1)c1ccccc1 [PCBH, 2-pyridylcarboxaldehyde benzoyl hydrazone]
- IRP-RNA binding activity compared to the control (FIG. 5) [1]: marked increase
- % Cellular Iron Released [2]: 54 ± 4%
- Internalised Iron Uptake (% Control) [3]: 20 ± 2 % Control
- Internalised Iron Uptake (% Control) [4]: 25 ± 4 % Control

SMILES: O=C(NN=Cc1ccccn1)c1cccs1 [PCTH, 2-pyridylcarboxaldehyde 2-thiophenecarboxyl hydrazone]
- IRP-RNA binding activity compared to the control (FIG. 5) [1]: marked increase
- % Cellular Iron Released [2]: 57 ± 6%
- Internalised Iron Uptake (% Control) [3]: 16 ± 1 % Control
- Internalised Iron Uptake (% Control) [4]: 25 ± 3 % Control
